From US7339042B2, “Gene delivery to tumors” (University of Florida Research Foundation, Inc., priority 2003, dated 2008)

Columns and labels:
[1] = tested on: two human glioblastoma cell lines and a rat glioma cell line; test: Fluorescein peptide uptake, fluorescence microscopy, three glioma lines; assay type: cell-based; details: 1 μM peptide, 10^6 cells, all three cell types
Method: Synthetic peptides labeled with an N-terminal fluorescein were synthesized to test the ability of a shuttle domain to enter brain tumor and endothelial cells. The amino acid sequences for the shuttle domain was derived from HIV Tat amino acid 47 to 56 ([…] SEQ ID NO:23)(Robert-Guroff et al., J. Virol. 64:3391-3398, 1990) to which AGGG was added to the N-terminus, and the antennapedia homeodomain from drosophila (ANT) ([…] SEQ ID NO:24) (Astriab-Fisher et al., Pharm. Res., 19:744-754, 2002). A synthetic peptide (PTD-5) reported to have similar properties as Tat and ANT was also tested (Mai J. C. et al, Cancer Res. 2001; 61: 7709-7712.). Uptake was tested in two human glioblastoma cell lines and a rat glioma cell line, the latter being used for the rat brain tumor model. A 1 μM concentration of each peptide was added to 10^6 cells in a 6 well plate. […] The Tat and ANT peptides were doubled in length by the addition of […] (SEQ ID NO: 25), amino acids 42 to 55 from a human cyclin-dependent kinase inhibitor 2A (melanoma, p16, inhibits CDK4) (CDKI), transcript variant 4, mRNA (accession no. NM_058195). This domain binds MDM2 and inhibit ubiquination of P53, a tumor suppressor protein. […] Only the combination of Tat-CDKI was toxic to the cells, 65% killing for T98G and 61% killing for RG2 cells. […] Similar results were obtained with A172 cells. […]

[2] = Fusion peptide cell killing, propidium iodide/FACS viability, T98G cells; assay type: cell-based, human; details: peptides in complete media for 1 hr, Table 2, read-out: % Viable Cells
Method: (§1) Other experiments were performed using two glioma cell lines, i.e., T98G and RG2. 1×10^6 cells per well were incubated in 6-well plates with peptides in complete media for 1 hr. Cells were removed from the plate using a cell stripper and the percentage of viable cells was determined by staining with propidium iodide and analyzing by fluorescence activated cell sorting (FACS).
(§2) Cell viability studies were performed by plating the cells under the same conditions as the uptake studies. Cells were incubated with fluorescent peptides for 1 hr at 37° C. The cells were removed from the plate using cell striper. They were labeled with propidium iodide and fluorescein-AM. Percent PI positive cells were determined by FACS.

T98G cells = test: as above; assay type: cell-based, human
Method: as §1, §2

[3] = tested on: T98G cells, RG2 cells and A172 cells; test: Cell viability assay of chimeric peptides in three cell types; assay type: cell-based, human and rat; details: fixed concentration, 30-minute incubation
Method: Synthetic peptides labeled with an N-terminal fluorescein were synthesized to test the ability of a shuttle domain to enter brain tumor and endothelial cells. The amino acid sequences for the shuttle domain was derived from HIV Tat amino acid 47 to 56 ([…] SEQ ID NO:23)(Robert-Guroff et al., J. Virol. 64:3391-3398, 1990) to which AGGG was added to the N-terminus, and the antennapedia homeodomain from drosophila (ANT) ([…] SEQ ID NO:24) (Astriab-Fisher et al., Pharm. Res., 19:744-754, 2002). A synthetic peptide (PTD-5) reported to have similar properties as Tat and ANT was also tested (Mai J. C. et al, Cancer Res. 2001; 61: 7709-7712.). Uptake was tested in two human glioblastoma cell lines and a rat glioma cell line, the latter being used for the rat brain tumor model. A 1 μM concentration of each peptide was added to 10^6 cells in a 6 well plate. […] The Tat and ANT peptides were doubled in length by the addition of […] (SEQ ID NO: 25), amino acids 42 to 55 from a human cyclin-dependent kinase inhibitor 2A (melanoma, p16, inhibits CDK4) (CDKI), transcript variant 4, mRNA (accession no. NM_058195). […]
The cytotoxicity of the chimeric peptides was characterized using a cell viability assay. […] After a 30-minute incubation, cells were removed from the plate, stained with propidium iodide and the % positive cells were determined by FACS (fluorescent activated cell scanning). […]

[4] = tested on: endothelial cells and smooth muscle cells of rat cerebral arteries; test: Uptake of fluorescent peptides by pressure-mounted rat cerebral arteries; assay type: cell-based; details: intraluminal perfusion of fluorescent peptide
Method: Tat-P16 peptides were prepared and labeled with fluorescein for use in uptake studies using intact blood vessels isolated from rat brain. Blood vessels were dissected from rat brain and stabilized in an isolated perfusion system in which vessels were attached on either end to catheters and placed under physiological pressure. Following a 10 minute perfusion of the isolated vessels with flurorescent Tat-P16 peptide (1 μM), vessels were examined for uptake of the peptides. […] Within the endothelial cells, the labeled peptides were seen to be localized to the cell nuclei, further confirming uptake of the peptides by the cells.
The peptides are fairly labile in the media and approximately 50% are degraded upon incubation at 37° C. in complete media (qualitative analysis by PAGE) after 1 hour. […] Uptake of these peptides and cell killing activity was tested in a 3 dimensional organ culture using rat cerebral arteries cultured under physiological pressure and flow. A segment of the rat cerebral artery is surgically removed and placed in ringer's solution. Using a surgical stereoscope, the blood vessel is tied at either end to two cannulas on a teflon stage. Ringer's solution is perfused through the lumen of the vessel at a constant rate that maintains physiologic hydrostatic pressure. The fluorescent peptide was introduced intraluminally by perfusing a 1 μM solution of peptide through the lumen over a 10 minute period.
Rats were anesthetized by intraperitoneal injection of pentobarbital sodium (160 mg/kg) and killed by decapitation. The brain was removed and placed in an ice-cold oxygenated physiological cerebrospinal fluid (PCSF, see below for composition). Cerebellar arteries were isolated and mounted in an arteriograph as described previously (Knot and Nelson 1998). The arteriograph was placed on an inverted microscope and the artery was visualized with a monochrome CCD camera coupled to a calibrated video caliper system to measure arterial diameter. The arteries were slowly pressurized to 70 mmHg under no flow conditions using a pressure servo-null system (Living Systems Inc., Burlington Vt.), and warmed to 37° C. while being continuously superfused (5 ml/min) with PCSF bubbled with 21% O2, 5% CO2, 74% N2 (pH 7.35-7.40 in the bath). […] Myogenic tone is calculated by the following equation: Myogenic tone=(Dp−Da)/Dp×100
In some experiments, the arterial segments were denuded of endothelium by passing an air bubble through the lumen, thus exposing the smooth muscle cells to luminally administered peptides. Constriction to pressure and 60 mM KCl and dilation of arteries with myogenic tone to 16 mM KCl were used as benchmarks of functional arteries. Peptide containing PCSF was perfused intraluminally at an inlet pressure of 70 mmHg with the outlet open, for 20 min and then perfused with normal PCSF. This procedure ensures a 20 min of exposure of the arteries to the peptide.

## C[C@H](N)C(=O)NCC(=O)NCC(=O)NCC(=O)N[C@@H](Cc1ccc(O)cc1)C(=O)NCC(=O)N[C@@H](CCCNC(=N)N)C(=O)N[C@@H](CCCCN)C(=O)N[C@@H](CCCCN)C(=O)N[C@@H](CCCNC(=N)N)C(=O)N[C@@H](CCCNC(=N)N)C(=O)N[C@@H](CCC(N)=O)C(=O)N[C@@H](CCCNC(=N)N)C(=O)N[C@@H](CCCNC(=N)N)C(=O)N[C@@H](CCCNC(=N)N)C(=O)O [Tat]
[1]
  fluorescence labeling of cells (uptake): preferentially labeled the cell nuclei
[2]
  viability: 94.9%
T98G cells; 10 μM peptide, 1 hr
  % killing (toxicity): no toxicity
T98G cells; peptides in complete media for 1 hr, Table 2
  % Viable Cells: ineffective
[3]
  cells killed: No impact on cell viability
[4]
  labeling/uptake by endothelial cells: selectively labeling the endothelial nuclei
  labeling/uptake by smooth muscle cells: did not label the smooth muscle cells
